Experimental data taken from patent US20230278972A1, “SUBSTITUTED HALOALKYL SULFONANILIDE HERBICIDES” (FMC Corporation, priority 2020, published 2023).

Assays:
Assay type in all cases: in vivo
[1] = tested on: pigweed (Amaranthus retroflexus); assay: Test A postemergence, pigweed; conditions: Postemergence, 0 to 100 scale (0 no effect, 100 complete control); for Pigweed plant response rating: visual injury vs untreated controls after approx. 10 days
Procedure, shortened: (§1)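 Preemergence: seeded pots of loam plus sand received a directed soil spray. Postemergence: seedlings at one to two leaves, 2 to 10 cm high, were oversprayed. Each compound was formulated in a non-phytotoxic solvent mix that included a surfactant.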

[2] = tested on: kochia (Bassia scoparia); assay: Test A preemergence, kochia; conditions: Preemergence; for Kochia plant response rating: 125 g ai/ha, visual injury on 0 to 100 scale (0 no effect, 100 complete control), approximately 10 days; for Plant response rating, Kochia: 0 to 100 scale (0 no effect, 100 complete control)
Procedure, shortened: as §1

[3] = tested on: Foxtail, Giant (giant foxtail, Setaria faberi); assay: Test A preemergence, Foxtail, Giant; conditions: Preemergence; for Foxtail, Giant plant response rating: 125 g ai/ha, visual injury on 0 to 100 scale (0 no effect, 100 complete control), approximately 10 days; for Plant response rating, Foxtail, Giant: 0 to 100 scale (0 no effect, 100 complete control)
Procedure, shortened: as §1

[4] = tested on: barnyardgrass (Echinochloa crus-galli); assay: Test A postemergence, barnyardgrass; conditions: Postemergence, 0 to 100 scale (0 no effect, 100 complete control); for Barnyardgrass plant response rating: visual injury vs untreated controls after approx. 10 days
Procedure, shortened: as §1

[5] = tested on: Ryegrass, Italian (Italian ryegrass, Lolium multiflorum); assay: Test A preemergence, Ryegrass, Italian; conditions: Preemergence; for Ryegrass, Italian plant response rating: 125 g ai/ha, visual injury on 0 to 100 scale (0 no effect, 100 complete control), approximately 10 days; for Plant response rating, Ryegrass, Italian: 0 to 100 scale (0 no effect, 100 complete control)
Procedure, shortened: as §1

[6] = tested on: blackgrass (Alopecurus myosuroides); assay: Test A postemergence, blackgrass; conditions: Postemergence, 0 to 100 scale (0 no effect, 100 complete control); for Blackgrass plant response rating: visual injury vs untreated controls after approx. 10 days
Procedure, shortened: as §1

[7] = tested on: wheat (Triticum aestivum); assay: Test A postemergence, wheat; conditions: Postemergence, 0 to 100 scale (0 no effect, 100 complete control); for Wheat plant response rating: visual injury vs untreated controls after approx. 10 days
Procedure, shortened: as §1

[8] = tested on: barnyardgrass (Echinochloa crus-galli); assay: Test A preemergence, barnyardgrass; conditions: Preemergence; for Barnyardgrass plant response rating: 125 g ai/ha, visual injury on 0 to 100 scale (0 no effect, 100 complete control), approximately 10 days; for Plant response rating, Barnyardgrass: 0 to 100 scale (0 no effect, 100 complete control)
Procedure, shortened: as §1

[9] = tested on: pigweed (Amaranthus retroflexus); assay: Test A preemergence, pigweed; conditions: for Pigweed plant response rating: 125 g ai/ha, visual injury on 0 to 100 scale (0 no effect, 100 complete control), approximately 10 days; for Plant response rating, Pigweed: 0 to 100 scale (0 no effect, 100 complete control)
Procedure, shortened: as §1

[10] = tested on: Ryegrass, Italian (Italian ryegrass, Lolium multiflorum); assay: Test A postemergence, Ryegrass, Italian; conditions: Postemergence, 0 to 100 scale (0 no effect, 100 complete control); for Ryegrass, Italian plant response rating: visual injury vs untreated controls after approx. 10 days
Procedure, shortened: as §1

[11] = tested on: corn (Zea mays); assay: Test A postemergence, corn; conditions: Postemergence, 0 to 100 scale (0 no effect, 100 complete control); for Corn plant response rating: visual injury vs untreated controls after approx. 10 days
Procedure, shortened: as §1

[12] = tested on: kochia (Bassia scoparia); assay: Test A postemergence, kochia; conditions: Postemergence, 0 to 100 scale (0 no effect, 100 complete control); for Kochia plant response rating: visual injury vs untreated controls after approx. 10 days
Procedure, shortened: as §1

[13] = tested on: galium (catchweed bedstraw, Galium aparine); assay: Test A postemergence, galium; conditions: Postemergence, 0 to 100 scale (0 no effect, 100 complete control); for Galium plant response rating: visual injury vs untreated controls after approx. 10 days
Procedure, shortened: as §1

[14] = tested on: Foxtail, Giant (giant foxtail, Setaria faberi); assay: Test A postemergence, Foxtail, Giant; conditions: Postemergence, 0 to 100 scale (0 no effect, 100 complete control); for Foxtail, Giant plant response rating: visual injury vs untreated controls after approx. 10 days
Procedure, shortened: as §1

[15] = tested on: ragweed (common ragweed, Ambrosia artemisiifolia); assay: Test A postemergence, ragweed; conditions: Postemergence, 0 to 100 scale (0 no effect, 100 complete control); for Ragweed plant response rating: visual injury vs untreated controls after approx. 10 days
Procedure, shortened: as §1

[16] = tested on: ragweed (common ragweed, Ambrosia artemisiifolia); assay: Test A preemergence, ragweed; conditions: Preemergence; for Ragweed plant response rating: 125 g ai/ha, visual injury on 0 to 100 scale (0 no effect, 100 complete control), approximately 10 days; for Plant response rating, Ragweed: 0 to 100 scale (0 no effect, 100 complete control)
Procedure, shortened: as §1

[17] = 125 g ai/ha, visual injury approx. 10 days
[18] = 500 g ai/ha, visual injury, approx. 10 days
[19] = 1000 g ai/ha, visual injury, approx. 10 days

Row | SMILES | Plant response rating, Pigweed [1, 17] | Pigweed plant response rating ([1]; 500 g ai/ha) | Kochia plant response rating [2] | Plant response rating, Kochia ([2]; 500 g ai/ha) | Foxtail, Giant plant response rating [3] | Plant response rating, Foxtail, Giant ([3]; 500 g ai/ha) | Plant response rating, Barnyardgrass [4, 17] | Ryegrass, Italian plant response rating [5] | Plant response rating, Ryegrass, Italian ([5]; 500 g ai/ha) | Plant response rating, Blackgrass [6, 17] | Barnyardgrass plant response rating [8] | Plant response rating, Barnyardgrass ([8]; 500 g ai/ha) | Pigweed plant response rating [9] | Plant response rating, Pigweed ([9]; 500 g ai/ha) | Plant response rating, Corn [11, 17] | Plant response rating, Kochia [12, 17] | Plant response rating, Galium [13, 17] | Plant response rating, Foxtail, Giant [14, 17] | Ragweed plant response rating [16] | Plant response rating, Ragweed ([16]; 500 g ai/ha) | further results
1 | CCn1nccc(-c2cc(NS(=O)(=O)C(F)(F)F)c(C)cc2C)c1=O [Compound 79] | 30 | 80 | 70 | 90 | 100 | 100 | 80 | 90 | 100 | 30 | 100 | 100 | 90 | 100 | 10 | 40 | 90 | 90 | 80 | 90 | Barnyardgrass plant response rating ([4]; 500 g ai/ha): 90; Blackgrass plant response rating ([6]; 500 g ai/ha): 30; Plant response rating, Wheat [7, 17]: 70; Wheat plant response rating ([7]; 500 g ai/ha): 80; Plant response rating, Ryegrass, Italian [10, 17]: 40; Ryegrass, Italian plant response rating ([10]; 500 g ai/ha): 80; Corn plant response rating ([11]; 500 g ai/ha): 70; Kochia plant response rating ([12]; 500 g ai/ha): 70; Galium plant response rating ([13]; 500 g ai/ha): 90; Foxtail, Giant plant response rating ([14]; 500 g ai/ha): 90; Plant response rating, Ragweed [15, 17]: 30; Ragweed plant response rating ([15]; 500 g ai/ha): 80
2 | Cc1cc(C(F)(F)F)c(NS(=O)(=O)C(F)(F)F)cc1C(=O)N(C)C [Compound 132] | – | 90 | 0 | 70 | 30 | 90 | 0 | 80 | 100 | 0 | 60 | 100 | 100 | 100 | 0 | 20 | 70 | 20 | 80 | 90 | Plant response rating, Pigweed ([1]; 125 g ai/ha): 70; Barnyardgrass plant response rating ([4]; 500 g ai/ha): 40; Blackgrass plant response rating ([6]; 500 g ai/ha): 0; Plant response rating, Wheat ([7]; 125 g ai/ha): 40; Wheat plant response rating ([7]; 500 g ai/ha): 0; Plant response rating, Ryegrass, Italian ([10]; 125 g ai/ha): 0; Ryegrass, Italian plant response rating ([10]; 500 g ai/ha): 40; Corn plant response rating ([11]; 500 g ai/ha): 20; Kochia plant response rating ([12]; 500 g ai/ha): 20; Galium plant response rating ([13]; 500 g ai/ha): 90; Foxtail, Giant plant response rating ([14]; 500 g ai/ha): 40; Plant response rating, Ragweed ([15]; 125 g ai/ha): 60; Ragweed plant response rating ([15]; 500 g ai/ha): 90
3 | Cc1cc(C)c(C(=O)N(C)CC2CC2)cc1NS(=O)(=O)C(F)(F)F [Compound 107] | 50 | 60 | 0 | 50 | 60 | 100 | 70 | 60 | 90 | 0 | 90 | 100 | 80 | 90 | 0 | 20 | 90 | 10 | 50 | 80 | Barnyardgrass plant response rating ([4]; 500 g ai/ha): 90; Blackgrass plant response rating ([6]; 500 g ai/ha): 30; Plant response rating, Wheat [7, 17]: 0; Wheat plant response rating ([7]; 500 g ai/ha): 40; Plant response rating, Ryegrass, Italian [10, 17]: 0; Ryegrass, Italian plant response rating ([10]; 500 g ai/ha): 30; Corn plant response rating ([11]; 500 g ai/ha): 80; Kochia plant response rating ([12]; 500 g ai/ha): 40; Galium plant response rating ([13]; 500 g ai/ha): 90; Foxtail, Giant plant response rating ([14]; 500 g ai/ha): 50; Plant response rating, Ragweed [15, 17]: 70; Ragweed plant response rating ([15]; 500 g ai/ha): 90
4 | Cc1cc(C)c(-c2ccnn(C)c2=O)cc1NS(=O)(=O)C(F)(F)F [Compound 80] | 70 | 70 | 80 | 80 | 90 | 100 | 70 | 90 | 90 | 60 | 90 | 90 | 60 | 90 | 20 | 40 | 90 | 90 | 70 | 90 | Barnyardgrass plant response rating ([4]; 500 g ai/ha): 90; Blackgrass plant response rating ([6]; 500 g ai/ha): 100; Plant response rating, Wheat [7, 17]: 60; Wheat plant response rating ([7]; 500 g ai/ha): 80; Plant response rating, Ryegrass, Italian [10, 17]: 70; Ryegrass, Italian plant response rating ([10]; 500 g ai/ha): 80; Corn plant response rating ([11]; 500 g ai/ha): 80; Kochia plant response rating ([12]; 500 g ai/ha): 70; Galium plant response rating ([13]; 500 g ai/ha): 90; Foxtail, Giant plant response rating ([14]; 500 g ai/ha): 90; Plant response rating, Ragweed [15, 17]: 90; Ragweed plant response rating ([15]; 500 g ai/ha): 90
5 | CCn1nc(Cl)cc(-c2cc(NS(=O)(=O)C(F)(F)F)c(C)cc2C)c1=O [Compound 51] | 60 | 80 | 80 | 90 | 100 | 100 | 30 | 90 | 100 | 20 | 100 | 100 | 80 | 90 | 0 | 10 | 40 | 30 | 60 | 90 | Barnyardgrass plant response rating ([4]; 500 g ai/ha): 80; Blackgrass plant response rating ([6]; 500 g ai/ha): 70; Plant response rating, Wheat [7, 17]: 50; Wheat plant response rating ([7]; 500 g ai/ha): 60; Plant response rating, Ryegrass, Italian [10, 17]: 70; Ryegrass, Italian plant response rating ([10]; 500 g ai/ha): 80; Corn plant response rating ([11]; 500 g ai/ha): 20; Kochia plant response rating ([12]; 500 g ai/ha): 60; Galium plant response rating ([13]; 500 g ai/ha): 60; Foxtail, Giant plant response rating ([14]; 500 g ai/ha): 80; Plant response rating, Ragweed [15, 17]: 50; Ragweed plant response rating ([15]; 500 g ai/ha): 80
6 | Cc1cc(Cl)c(NS(=O)(=O)C(F)(F)F)cc1-c1cn(C)c(=O)n(C)c1=O [Compound 29] | 40 | – | 40 | 90 | 100 | 100 | 50 | 90 | 100 | 80 | 40 | 100 | 70 | 90 | 0 | 30 | 90 | 90 | 60 | 90 | Plant response rating, Pigweed [1, 18]: 50; Plant response rating, Barnyardgrass [4, 18]: 90; Plant response rating, Blackgrass [6, 18]: 90; Plant response rating, Wheat [7, 17]: 70; Plant response rating, Wheat [7, 18]: 70; Plant response rating, Ryegrass, Italian [10, 17]: 70; Plant response rating, Ryegrass, Italian [10, 18]: 90; Plant response rating, Corn [11, 18]: 10; Plant response rating, Kochia [12, 18]: 80; Plant response rating, Galium [13, 18]: 90; Plant response rating, Foxtail, Giant [14, 18]: 90; Plant response rating, Ragweed [15, 17]: 80; Plant response rating, Ragweed [15, 18]: 90
7 | COC(=O)C1CCN(C(=O)c2cc(NS(=O)(=O)C(F)(F)F)c(C)cc2C)CC1 [Compound 50] | – | – | – | – | – | – | – | – | – | – | – | – | – | – | – | – | – | – | – | – | Plant response rating, Pigweed [1, 19]: 90; Plant response rating, Kochia ([2]; 1000 g ai/ha): 90; Plant response rating, Foxtail, Giant ([3]; 1000 g ai/ha): 100; Plant response rating, Barnyardgrass [4, 19]: 60; Plant response rating, Ryegrass, Italian ([5]; 1000 g ai/ha): 70; Plant response rating, Blackgrass [6, 19]: 20; Plant response rating, Wheat [7, 19]: 50; Plant response rating, Barnyardgrass ([8]; 1000 g ai/ha): 100; Plant response rating, Pigweed ([9]; 1000 g ai/ha): 100; Plant response rating, Ryegrass, Italian [10, 19]: 90; Plant response rating, Corn [11, 19]: 10; Plant response rating, Kochia [12, 19]: 60; Plant response rating, Galium [13, 19]: 90; Plant response rating, Foxtail, Giant [14, 19]: 90; Plant response rating, Ragweed [15, 19]: 50; Plant response rating, Ragweed ([16]; 1000 g ai/ha): 80
